Test results from the kinase profiling compilation of Christmann-Franck et al. (2016).

Assays:
Test in all cases: radiometric filter-binding kinase assay, Kinase HotSpot
Conditions in all cases: compound 0.5 µM; ATP 10 µM
[1] = molecular target: EPHA2 (human) (UniProt P29317)
[2] = molecular target: CDK9 CCNT1 (human) (UniProt P50750+O60563)
[3] = molecular target: MAPKAPK5 (human) (UniProt Q8IW41)
[4] = molecular target: FLT1 (human) (UniProt P17948)
[5] = molecular target: GRK7 (human) (UniProt Q8WTQ7)
[6] = molecular target: NLK (human) (UniProt Q9UBE8)
[7] = molecular target: KDR (human) (UniProt P35968)
[8] = molecular target: AKT1 (human) (UniProt P31749)
[9] = molecular target: SRPK3 (human) (UniProt Q9UPE1)
[10] = molecular target: STK24 (human) (UniProt Q9Y6E0)
Sequence of STK24 (human) (Q9Y6E0 whole entry, looked up): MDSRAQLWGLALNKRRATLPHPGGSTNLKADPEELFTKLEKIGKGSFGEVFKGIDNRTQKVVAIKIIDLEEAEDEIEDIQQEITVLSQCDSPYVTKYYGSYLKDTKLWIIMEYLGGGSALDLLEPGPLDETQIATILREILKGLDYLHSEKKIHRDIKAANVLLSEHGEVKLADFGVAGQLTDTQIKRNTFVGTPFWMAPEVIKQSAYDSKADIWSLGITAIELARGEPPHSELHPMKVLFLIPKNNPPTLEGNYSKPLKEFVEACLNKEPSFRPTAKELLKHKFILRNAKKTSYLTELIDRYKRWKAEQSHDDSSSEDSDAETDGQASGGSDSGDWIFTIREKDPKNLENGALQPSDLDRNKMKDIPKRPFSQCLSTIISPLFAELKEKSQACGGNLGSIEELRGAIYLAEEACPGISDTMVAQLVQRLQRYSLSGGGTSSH

[11] = molecular target: PIM1 (human) (UniProt P11309)
[12] = molecular target: ACVRL1 (human) (UniProt P37023)
[13] = molecular target: NEK2 (human) (UniProt P51955)
Sequence of NEK2 (human) (P51955 whole entry, looked up): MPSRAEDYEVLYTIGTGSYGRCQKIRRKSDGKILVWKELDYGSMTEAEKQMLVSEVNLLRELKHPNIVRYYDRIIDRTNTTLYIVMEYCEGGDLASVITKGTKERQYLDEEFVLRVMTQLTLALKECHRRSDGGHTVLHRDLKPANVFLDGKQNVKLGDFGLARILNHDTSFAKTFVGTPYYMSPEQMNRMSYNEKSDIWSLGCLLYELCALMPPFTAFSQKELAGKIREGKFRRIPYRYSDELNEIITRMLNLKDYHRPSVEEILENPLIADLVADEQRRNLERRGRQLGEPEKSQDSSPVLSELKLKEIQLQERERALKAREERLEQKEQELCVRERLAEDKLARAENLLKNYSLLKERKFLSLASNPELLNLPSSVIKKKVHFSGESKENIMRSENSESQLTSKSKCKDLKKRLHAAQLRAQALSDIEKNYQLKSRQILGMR

[14] = molecular target: ROCK2 (human) (UniProt O75116)
Sequence of ROCK2 (human) (O75116 whole entry, looked up): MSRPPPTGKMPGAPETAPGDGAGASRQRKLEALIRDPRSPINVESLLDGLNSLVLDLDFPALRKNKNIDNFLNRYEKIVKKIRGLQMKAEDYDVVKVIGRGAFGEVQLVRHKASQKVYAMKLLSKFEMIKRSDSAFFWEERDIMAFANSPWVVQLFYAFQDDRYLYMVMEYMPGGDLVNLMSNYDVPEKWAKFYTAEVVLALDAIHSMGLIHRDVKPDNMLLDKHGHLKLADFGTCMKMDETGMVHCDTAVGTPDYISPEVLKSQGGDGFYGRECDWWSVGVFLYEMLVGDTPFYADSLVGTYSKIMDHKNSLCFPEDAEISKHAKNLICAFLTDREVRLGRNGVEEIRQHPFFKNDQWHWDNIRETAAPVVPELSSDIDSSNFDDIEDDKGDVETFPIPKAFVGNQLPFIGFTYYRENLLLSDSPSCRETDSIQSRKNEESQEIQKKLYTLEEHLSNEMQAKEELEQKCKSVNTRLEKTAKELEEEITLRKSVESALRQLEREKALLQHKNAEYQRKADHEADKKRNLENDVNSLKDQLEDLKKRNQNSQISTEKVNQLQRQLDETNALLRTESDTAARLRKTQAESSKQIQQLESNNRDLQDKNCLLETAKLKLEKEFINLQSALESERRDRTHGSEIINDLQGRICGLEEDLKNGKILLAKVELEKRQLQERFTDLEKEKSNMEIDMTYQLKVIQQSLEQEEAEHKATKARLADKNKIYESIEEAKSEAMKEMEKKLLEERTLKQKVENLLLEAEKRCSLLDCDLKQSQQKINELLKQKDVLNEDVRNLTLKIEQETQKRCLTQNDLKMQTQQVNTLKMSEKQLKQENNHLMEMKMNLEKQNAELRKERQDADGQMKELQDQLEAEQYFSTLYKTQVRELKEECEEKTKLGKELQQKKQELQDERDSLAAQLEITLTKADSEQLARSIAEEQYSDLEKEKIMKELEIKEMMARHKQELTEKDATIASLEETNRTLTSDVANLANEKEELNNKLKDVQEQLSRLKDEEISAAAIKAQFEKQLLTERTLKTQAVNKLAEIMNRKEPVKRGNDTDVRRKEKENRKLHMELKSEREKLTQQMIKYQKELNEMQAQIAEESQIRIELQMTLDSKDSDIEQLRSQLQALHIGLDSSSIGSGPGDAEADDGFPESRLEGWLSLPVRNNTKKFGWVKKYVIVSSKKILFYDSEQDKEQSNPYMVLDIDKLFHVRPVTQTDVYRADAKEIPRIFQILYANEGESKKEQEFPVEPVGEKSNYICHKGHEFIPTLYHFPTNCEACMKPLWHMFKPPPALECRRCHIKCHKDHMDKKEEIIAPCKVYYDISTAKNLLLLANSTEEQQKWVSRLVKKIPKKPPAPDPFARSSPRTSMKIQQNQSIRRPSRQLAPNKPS

[15] = molecular target: PRKCG (human) (UniProt P05129)
[16] = molecular target: TNK2 (human) (UniProt Q07912)
[17] = molecular target: AURKB (human) (UniProt Q96GD4)
Sequence of AURKB (human) (Q96GD4 whole entry, looked up): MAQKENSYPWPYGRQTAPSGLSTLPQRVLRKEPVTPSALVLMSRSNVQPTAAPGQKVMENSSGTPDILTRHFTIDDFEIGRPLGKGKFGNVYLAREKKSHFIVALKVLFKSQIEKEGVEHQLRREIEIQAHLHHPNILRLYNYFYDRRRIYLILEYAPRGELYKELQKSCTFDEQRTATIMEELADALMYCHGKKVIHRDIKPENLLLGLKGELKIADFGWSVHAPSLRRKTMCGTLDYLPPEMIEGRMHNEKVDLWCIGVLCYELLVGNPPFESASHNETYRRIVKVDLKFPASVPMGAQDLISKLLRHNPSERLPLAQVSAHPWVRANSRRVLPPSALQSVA

[18] = molecular target: KIT (human) (UniProt P10721)
[19] = molecular target: HIPK4 (human) (UniProt Q8NE63)
[20] = molecular target: ABL2 (human) (UniProt P42684)
[21] = molecular target: CSNK1G3 (human) (UniProt Q9Y6M4)
[22] = molecular target: EPHB1 (human) (UniProt P54762)
[23] = molecular target: WNK3 (human) (UniProt Q9BYP7)
[24] = molecular target: NTRK3 (human) (UniProt Q16288)
[25] = molecular target: MAPK9 (human) (UniProt P45984)
[26] = molecular target: STK4 (human) (UniProt Q13043)
[27] = molecular target: CDK2 CCNE1 (human) (UniProt P24941+P24864)
[28] = molecular target: PRKCB2 (human) (UniProt P05771)
[29] = molecular target: GRK5 (human) (UniProt P34947)
[30] = molecular target: CSNK1E (human) (UniProt P49674)
[31] = molecular target: PRKACA (human) (UniProt P17612)
[32] = molecular target: CDK1 CCNA2 (human) (UniProt P06493+P20248)
[33] = molecular target: FLT3 (human) (UniProt P36888)
[34] = molecular target: MYLK (human) (UniProt Q15746)
[35] = molecular target: MERTK (human) (UniProt Q12866)
[36] = molecular target: CLK4 (human) (UniProt Q9HAZ1)
Sequence of CLK4 (human) (Q9HAZ1 whole entry, looked up): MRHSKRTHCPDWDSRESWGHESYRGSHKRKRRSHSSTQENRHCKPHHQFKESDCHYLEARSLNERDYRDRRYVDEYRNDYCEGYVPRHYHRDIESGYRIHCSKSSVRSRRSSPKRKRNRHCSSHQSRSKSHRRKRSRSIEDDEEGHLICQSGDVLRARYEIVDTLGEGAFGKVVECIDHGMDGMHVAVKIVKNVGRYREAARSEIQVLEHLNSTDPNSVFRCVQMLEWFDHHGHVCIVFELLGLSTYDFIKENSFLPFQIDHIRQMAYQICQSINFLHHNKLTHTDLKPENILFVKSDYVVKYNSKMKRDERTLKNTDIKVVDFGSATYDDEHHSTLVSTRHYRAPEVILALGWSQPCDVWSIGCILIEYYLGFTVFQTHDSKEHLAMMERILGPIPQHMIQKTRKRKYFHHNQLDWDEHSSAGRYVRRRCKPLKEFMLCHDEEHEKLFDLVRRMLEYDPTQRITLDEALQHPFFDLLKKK

[37] = molecular target: NUAK1 (human) (UniProt O60285)
[38] = molecular target: HIPK3 (human) (UniProt Q9H422)
[39] = molecular target: CSNK2A2 (human) (UniProt P19784)
Sequence of CSNK2A2 (human) (P19784 whole entry, looked up): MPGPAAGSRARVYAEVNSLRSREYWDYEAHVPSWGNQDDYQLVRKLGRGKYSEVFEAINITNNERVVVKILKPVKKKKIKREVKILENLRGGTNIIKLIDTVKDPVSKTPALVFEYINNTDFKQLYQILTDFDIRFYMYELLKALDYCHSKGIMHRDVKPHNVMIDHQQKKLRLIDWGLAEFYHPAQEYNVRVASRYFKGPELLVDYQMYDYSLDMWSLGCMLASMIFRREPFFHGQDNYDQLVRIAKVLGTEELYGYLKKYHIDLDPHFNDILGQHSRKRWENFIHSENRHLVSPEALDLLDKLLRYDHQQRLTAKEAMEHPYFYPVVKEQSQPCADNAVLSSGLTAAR

[40] = molecular target: MARK2 (human) (UniProt Q7KZI7)
[41] = molecular target: CSNK1A1 (human) (UniProt P48729)
[42] = molecular target: BRSK2 (human) (UniProt Q8IWQ3)

Sequence of EPHA2 (human) (P29317 whole entry, looked up): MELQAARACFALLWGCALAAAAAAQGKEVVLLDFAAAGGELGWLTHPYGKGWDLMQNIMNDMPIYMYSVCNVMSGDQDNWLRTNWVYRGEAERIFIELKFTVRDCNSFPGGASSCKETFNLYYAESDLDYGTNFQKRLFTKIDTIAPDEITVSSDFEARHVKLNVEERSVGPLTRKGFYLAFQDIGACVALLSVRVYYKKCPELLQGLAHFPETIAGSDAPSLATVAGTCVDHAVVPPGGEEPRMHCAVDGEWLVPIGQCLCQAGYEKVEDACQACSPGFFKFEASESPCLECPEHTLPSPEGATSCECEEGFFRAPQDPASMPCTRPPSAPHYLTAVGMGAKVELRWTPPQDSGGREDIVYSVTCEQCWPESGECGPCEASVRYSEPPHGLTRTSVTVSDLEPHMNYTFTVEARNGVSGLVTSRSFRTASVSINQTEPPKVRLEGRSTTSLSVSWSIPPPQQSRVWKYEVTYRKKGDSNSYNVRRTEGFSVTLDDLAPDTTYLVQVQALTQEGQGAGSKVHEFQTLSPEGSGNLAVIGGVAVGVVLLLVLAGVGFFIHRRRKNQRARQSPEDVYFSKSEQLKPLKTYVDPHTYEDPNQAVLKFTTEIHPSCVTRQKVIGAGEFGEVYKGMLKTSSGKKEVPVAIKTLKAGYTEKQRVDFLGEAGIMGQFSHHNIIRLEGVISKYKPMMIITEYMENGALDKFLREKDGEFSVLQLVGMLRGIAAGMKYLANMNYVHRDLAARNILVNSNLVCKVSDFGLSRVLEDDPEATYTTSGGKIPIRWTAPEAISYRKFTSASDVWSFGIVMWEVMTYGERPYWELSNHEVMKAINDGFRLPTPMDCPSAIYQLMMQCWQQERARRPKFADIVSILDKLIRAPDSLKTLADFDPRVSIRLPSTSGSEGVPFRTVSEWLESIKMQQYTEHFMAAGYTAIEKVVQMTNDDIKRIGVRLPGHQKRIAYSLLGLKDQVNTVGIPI
Sequence of MAPKAPK5 (human) (Q8IW41 whole entry, looked up): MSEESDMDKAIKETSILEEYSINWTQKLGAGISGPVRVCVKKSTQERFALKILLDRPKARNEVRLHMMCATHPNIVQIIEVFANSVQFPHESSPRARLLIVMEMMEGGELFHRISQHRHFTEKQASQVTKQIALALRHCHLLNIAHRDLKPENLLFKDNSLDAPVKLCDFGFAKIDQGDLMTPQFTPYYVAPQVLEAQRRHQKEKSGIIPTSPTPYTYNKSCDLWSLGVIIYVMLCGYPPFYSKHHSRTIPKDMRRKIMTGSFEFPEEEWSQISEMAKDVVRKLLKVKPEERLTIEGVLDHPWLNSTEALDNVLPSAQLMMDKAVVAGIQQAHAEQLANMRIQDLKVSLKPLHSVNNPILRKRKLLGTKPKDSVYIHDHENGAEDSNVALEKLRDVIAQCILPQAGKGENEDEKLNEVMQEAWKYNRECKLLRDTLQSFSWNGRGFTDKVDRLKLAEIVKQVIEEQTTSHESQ

Question: Which results are given for `CCC(=O)Nc1ccc2ncnc(Nc3cccc(Br)c3)c2c1`?
Answer: residual activity [1]: 101%; residual activity [2]: 93.7%; residual activity [3]: 105%; residual activity [4]: 86.9%; residual activity [5]: 105%; residual activity [6]: 95.9%; residual activity [7]: 96.5%; residual activity [8]: 95.8%; residual activity [9]: 97%; residual activity [10]: 102%; residual activity [11]: 85.3%; residual activity [12]: 97.4%; residual activity [13]: 87.5%; residual activity [14]: 86.1%; residual activity [15]: 102%; residual activity [16]: 93.5%; residual activity [17]: 95.4%; residual activity [18]: 90.4%; residual activity [19]: 87.8%; residual activity [20]: 96.6%; residual activity [21]: 91.6%; residual activity [22]: 93.3%; residual activity [23]: 99.3%; residual activity [24]: 95.8%; residual activity [25]: 78.3%; residual activity [26]: 97.1%; residual activity [27]: 84.9%; residual activity [28]: 101%; residual activity [29]: 107%; residual activity [30]: 98.2%; residual activity [31]: 94.6%; residual activity [32]: 87.9%; residual activity [33]: 94.1%; residual activity [34]: 95.5%; residual activity [35]: 83.9%; residual activity [36]: 99.4%; residual activity [37]: 87.3%; residual activity [38]: 92.1%; residual activity [39]: 61.4%; residual activity [40]: 73.5%; residual activity [41]: 97%; residual activity [42]: 94.3%

Question: `Nc1ccc2ncnc(NCCc3ccc(Oc4ccccc4)cc3)c2c1` was tested. Which residual activity [1] did it give?
Answer: 103%

Question: And the residual activity [2]?
Answer: 101%

Question: What about the residual activity [3] of the same molecule?
Answer: 101%

Question: And the residual activity [4]?
Answer: 96%

Question: What about the residual activity [5] of the same molecule?
Answer: 104%

Question: And the residual activity [6]?
Answer: 104%

Question: And the residual activity [7]?
Answer: 91.7%

Question: What about the residual activity [8] of the same molecule?
Answer: 98.2%

Question: And the residual activity [9]?
Answer: 96.6%

Question: What about the residual activity [10] of the same molecule?
Answer: 107%

Question: And the residual activity [11]?
Answer: 102%

Question: What about the residual activity [12] of the same molecule?
Answer: 93.5%

Question: What about the residual activity [13] of the same molecule?
Answer: 90%

Question: What about the residual activity [14] of the same molecule?
Answer: 90.7%

Question: What about the residual activity [15] of the same molecule?
Answer: 95.2%

Question: What about the residual activity [16] of the same molecule?
Answer: 102%

Question: What about the residual activity [17] of the same molecule?
Answer: 99.1%

Question: What about the residual activity [18] of the same molecule?
Answer: 99.7%

Question: And the residual activity [19]?
Answer: 97.4%

Question: And the residual activity [20]?
Answer: 102%

Question: What about the residual activity [21] of the same molecule?
Answer: 96.8%

Question: And the residual activity [22]?
Answer: 97.9%

Question: And the residual activity [23]?
Answer: 114%

Question: And the residual activity [24]?
Answer: 98.4%

Question: And the residual activity [25]?
Answer: 85%

Question: And the residual activity [26]?
Answer: 95.8%

Question: What about the residual activity [27] of the same molecule?
Answer: 95%

Question: And the residual activity [28]?
Answer: 104%

Question: And the residual activity [29]?
Answer: 98%

Question: What about the residual activity [30] of the same molecule?
Answer: 148%

Question: And the residual activity [31]?
Answer: 88.6%

Question: What about the residual activity [32] of the same molecule?
Answer: 98.9%

Question: What about the residual activity [33] of the same molecule?
Answer: 103%

Question: And the residual activity [34]?
Answer: 98.5%

Question: And the residual activity [35]?
Answer: 102%

Question: What about the residual activity [36] of the same molecule?
Answer: 94.6%

Question: And the residual activity [37]?
Answer: 94.7%

Question: And the residual activity [38]?
Answer: 98.6%

Question: And the residual activity [39]?
Answer: 103%

Question: What about the residual activity [40] of the same molecule?
Answer: 84.9%

Question: What about the residual activity [41] of the same molecule?
Answer: 102%

Question: And the residual activity [42]?
Answer: 102%

Question: Which residual activity [1] does the source give for `Nc1ncnc2c1c(-c1ccc(Oc3ccccc3)cc1)cn2C1CCCC1` here?
Answer: 100%

Question: And the residual activity [2]?
Answer: 104%

Question: What about the residual activity [3] of the same molecule?
Answer: 98.7%

Question: What about the residual activity [4] of the same molecule?
Answer: 76.9%

Question: What about the residual activity [5] of the same molecule?
Answer: 114%

Question: And the residual activity [6]?
Answer: 96.9%

Question: What about the residual activity [7] of the same molecule?
Answer: 75%

Question: And the residual activity [8]?
Answer: 103%

Question: What about the residual activity [9] of the same molecule?
Answer: 95.7%

Question: And the residual activity [10]?
Answer: 100%

Question: What about the residual activity [11] of the same molecule?
Answer: 92.4%

Question: What about the residual activity [12] of the same molecule?
Answer: 95.9%

Question: What about the residual activity [13] of the same molecule?
Answer: 88.5%

Question: What about the residual activity [14] of the same molecule?
Answer: 90.5%

Question: And the residual activity [15]?
Answer: 96.1%

Question: What about the residual activity [16] of the same molecule?
Answer: 2.7%

Question: And the residual activity [17]?
Answer: 88.6%

Question: And the residual activity [18]?
Answer: 21.6%

Question: And the residual activity [19]?
Answer: 102%

Question: And the residual activity [20]?
Answer: 84.8%

Question: What about the residual activity [21] of the same molecule?
Answer: 99.5%

Question: And the residual activity [22]?
Answer: 94.5%

Question: What about the residual activity [23] of the same molecule?
Answer: 85.2%

Question: And the residual activity [24]?
Answer: 67.9%

Question: What about the residual activity [25] of the same molecule?
Answer: 100%

Question: What about the residual activity [26] of the same molecule?
Answer: 77.8%

Question: What about the residual activity [27] of the same molecule?
Answer: 91.3%

Question: What about the residual activity [28] of the same molecule?
Answer: 107%

Question: And the residual activity [29]?
Answer: 102%

Question: What about the residual activity [30] of the same molecule?
Answer: 22.3%

Question: What about the residual activity [31] of the same molecule?
Answer: 100%

Question: What about the residual activity [32] of the same molecule?
Answer: 93.7%

Question: And the residual activity [33]?
Answer: 4.48%

Question: And the residual activity [34]?
Answer: 98.4%

Question: And the residual activity [35]?
Answer: 87.4%

Question: And the residual activity [36]?
Answer: 98%

Question: What about the residual activity [37] of the same molecule?
Answer: 87%

Question: And the residual activity [38]?
Answer: 116%

Question: And the residual activity [39]?
Answer: 74.7%

Question: And the residual activity [40]?
Answer: 86.4%

Question: What about the residual activity [41] of the same molecule?
Answer: 84.9%

Question: And the residual activity [42]?
Answer: 98.3%
